Assay results: paper PMC6426286 (2019)

What was measured:
[1] = test system: G. violaceus P1 stem-loop used for crystallization (RNA, riboswitch, 5-bromocytidine at 17) GGUGGGGACGACCCCACC; assay: X-ray crystallography, 1.54 Å; settings: 100 mM KCl, 2 mM MgCl2 (RNA folding); ligand soaked into ligand-free crystals; 5 mM HEPES pH 7.6 (RNA folding)
[2] = test system: GVP1 (guanidine-II riboswitch P1 stem-loop) (RNA, riboswitch) GGUGGGGACGACCCCACC; assay: ITC; settings: 100 mM KCl, 10 mM MgCl2; 40 mM HEPES pH 7.2, 298 K; one-set-of-sites fit
[3] = test system: GVP1P2 (complete guanidine-II riboswitch) (RNA, riboswitch) GGUGAGGACGACCUCACCCUUCGCAAAGUUUCGCGGGGACGACCCCGC; assay: ITC; settings: 100 mM KCl, 10 mM MgCl2; 40 mM HEPES pH 7.2, 298 K; one-set-of-sites fit
[4] = test system: GVP2 (guanidine-II riboswitch P2 stem-loop) (RNA, riboswitch) GCGGGGACGACCCCGC; assay: ITC; settings: 100 mM KCl, 10 mM MgCl2; 40 mM HEPES pH 7.2, 298 K; one-set-of-sites fit
[5] = test system: G. violaceus P1 stem-loop used for crystallization (RNA, riboswitch, 5-bromocytidine at 17) GGUGGGGACGACCCCACC; assay: X-ray crystallography, 1.41 Å; settings: 100 mM KCl, 2 mM MgCl2 (RNA folding); ligand soaked into ligand-free crystals; 5 mM HEPES pH 7.6 (RNA folding)
[6] = test system: G. violaceus P1 stem-loop used for crystallization (RNA, riboswitch, 5-bromocytidine at 17) GGUGGGGACGACCCCACC; assay: X-ray crystallography, 1.66 Å; settings: 100 mM KCl, 2 mM MgCl2 (RNA folding); ligand soaked into ligand-free crystals; 5 mM HEPES pH 7.6 (RNA folding)

SMILES: CCNC(=N)N
- binding [1]: yes

SMILES: N=C(N)N
- Kd [2]: 68 ± 6 µM
- Kd [3]: 33 ± 4 µM
- Kd [4]: 66 ± 8 µM

SMILES: N=C(N)NCCCCCNC(=N)N
- Kd [3]: 5.1 ± 0.8 µM
- binding [5]: yes

SMILES: N=C(N)NCCCCNC(=N)N
- Kd [2]: 4.7 ± 0.2 µM
- Kd [3]: 2.2 ± 0.5 µM
- Kd [4]: 5.9 ± 4 µM
- binding [6]: yes
